In patent US7112579B2, “26,27-Homologated-20-EPI-2-alkyl-19-nor-vitamin D compounds” (Wisconsin Alumni Research Foundation, priority 1997, dated 2006):
pEC50: −log10 of the molar value. Entries after “also recorded” stand apart in the source; their conditions may differ. Where two headings read alike, the source gives them in different places. Blank lines part the entries; values can stand above or below the compound they belong to.

Experiments:
[1] = system: intestinal calcium transport; experiment: Intestinal calcium transport (everted sac), chronic doses 7 days i.p., vitamin D-deficient rats; assay type: in vivo, rat; details: for intestinal calcium transport activity, in words: chronic 7 days, 130 and/or 260 pmol/day
Experimental: (§1) Male weanling rats were obtained from Sprague Dawley Co. (Indianapolis, Ind.) and fed a 0.47% calcium, 0.3% phosphorus vitamin D-deficient diet for 1 week and then given the same diet containing 0.02% calcium, 0.3% phosphorus for 2 weeks. During the last week they were given the indicated dose of compound by intraperitoneal injection in 0.1 ml 95% propylene glycol and 5% ethanol each day for 7 days. The control animals received only the 0.1 ml of 95% propylene glycol, 5% ethanol. Twenty-four hours after the last dose, the rats were sacrificed and intestinal calcium transport was determined by everted sac technique as previously described and serum calcium determined by atomic absorption spectrometry on a model 3110 Perkin Elmer instrument (Norwalk, Conn.). There were 5 rats per group and the values represent mean±SEM.
as §1, with “With respect to the data in Tables 3 and 4, male” for “Male”, “atormic” for “atomic”

[2] = system: human promyelocyte HL-60 cells; experiment: Differentiation of HL-60 promyelocytes into monocytes (NBT reduction); assay type: cell-based; details: for HL-60 differentiation, more active than corresponding 2β-isomer: 12 vs 13, 18 vs 19; for induction of differentiation of HL-60 cells to monocytes, in words: FIGS. 2, 4, 6, comparison in words; for HL-60 Differentiation Activity ratio: analog average ED50 / ED50 for 1α,25-(OH)2D3; for HL-60 Differentiation ED50: concentration inducing 50% maturation (NBT)
Source text: In the next assay, the cellular activity of the synthesized compounds was established by studying their ability to induce differentiation of human promyelocyte HL-60 cells into monocytes.

[3] = system: serum calcium (bone calcium mobilization); experiment: Serum calcium (bone calcium mobilization), chronic doses 7 days i.p., vitamin D-deficient rats; assay type: in vivo, rat; details: for bone calcium mobilization (serum calcium) activity, in words: chronic 7 days, 130 and/or 260 pmol/day; for calcemic activity (intestinal calcium transport and bone calcium mobilization), in words: chronic doses, rats
Experimental: as §1
as §1, with “With respect to the data in Tables 3 and 4, male” for “Male”, “atormic” for “atomic”

[4] = molecular target: T1, porcine intestinal vitamin D receptor (Sus scrofa, UniProt A3RGC1); experiment: Competitive binding to the porcine intestinal vitamin D receptor ([3H]-1,25-(OH)2-D3 displacement); design: species or system pig; details: for ability to bind the porcine intestinal vitamin D receptor, in words: FIGS. 1, 3 and 5, comparison in words; for VDR Binding ratio: analog average ED50 / ED50 for 1α,25-(OH)2D3; for pEC50: concentration for 50% displacement of radiolabeled 1α,25-(OH)2D3, read-out: VDR Binding ED50
T1 construct: from tissue; host or cells: porcine intestine
T1 sequence (A3RGC1 1-427): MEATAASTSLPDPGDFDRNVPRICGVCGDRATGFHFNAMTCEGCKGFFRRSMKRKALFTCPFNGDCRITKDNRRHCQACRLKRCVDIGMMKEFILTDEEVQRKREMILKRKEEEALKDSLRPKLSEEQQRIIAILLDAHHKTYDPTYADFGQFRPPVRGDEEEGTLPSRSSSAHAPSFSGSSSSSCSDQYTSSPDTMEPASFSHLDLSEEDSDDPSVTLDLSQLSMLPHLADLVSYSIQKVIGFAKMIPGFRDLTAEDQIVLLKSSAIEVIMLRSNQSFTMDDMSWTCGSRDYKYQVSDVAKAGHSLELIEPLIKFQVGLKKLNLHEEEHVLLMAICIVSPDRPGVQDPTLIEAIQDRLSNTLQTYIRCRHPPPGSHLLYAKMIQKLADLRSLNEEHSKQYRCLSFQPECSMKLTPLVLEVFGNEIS

[5] = system: bone calcium mobilization (serum Ca); experiment: Bone calcium mobilization (serum Ca) in vitamin D-deficient rats on a low-calcium diet (3 weeks), 7 daily i.p. doses; assay type: in vivo, rat
[6] = system: intestinal calcium transport; experiment: Support of intestinal calcium transport in vitamin D-deficient rats on a low-calcium diet (3 weeks), 7 daily i.p. doses; assay type: in vivo, rat
[7] = Table 4, 130 pmol/day/7 days i.p., mean±SEM
[8] = Table 4, 260 pmol/day/7 days i.p., mean±SEM
[9] = Table 4, 130 pmol/day/7 days i.p., mean±SEM, listed as 2β-Methyl-19-nor-1,25-(OH)2D3
[10] = Table 4, 260 pmol/day/7 days i.p., mean±SEM, listed as 2β-Methyl-19-nor-1,25-(OH)2D3
[11] = listed as 2β-methyl-19-nor-1,25-(OH)2D3
[12] = Table 3, 130 pmol/day/7 days i.p., mean±SEM
[13] = Table 3, 260 pmol/day/7 days i.p., mean±SEM
[14] = Table 5, 130 pmol/day/7 days i.p.
[15] = Table 5, 260 pmol/day/7 days i.p.
[16] = Table 5, 130 pmol/day/7 days i.p., listed as 2β-Hydroxymethyl-19-nor-20(S)-1,25-(OH)2D3
[17] = Table 5, 260 pmol/day/7 days i.p., listed as 2β-Hydroxymethyl-19-nor-20(S)-1,25-(OH)2D3
[18] = Table 7 panel 1, 32 pmol daily x 7 i.p.
[19] = Table 7 panel 1, 65 pmol daily x 7 i.p.
[20] = Table 7 panel 2, 65 pmol daily x 7 i.p.
[21] = Table 7 panel 2, 260 pmol daily x 7 i.p.
[22] = Table 9 panel 1, 32 pmol daily x 7 i.p.
[23] = Table 9 panel 1, 65 pmol daily x 7 i.p.

Compound: CC1[C@H](O)CC(=C/C=C2\CCC[C@]3(C)[C@@H]([C@H](C)CCCC(C)(C)O)CC[C@@H]23)C[C@H]1O (stereo partly drawn) [Compound 12, 2α-methyl-19-nor-1,25-(OH)2D3]
Intestinal Calcium Transport (S/M) [1, 7]: 4.3 ± 1.0 S/M
Intestinal Calcium Transport (S/M) [1, 8]: 5.3 ± 1.3 S/M
intestinal calcium transport activity, in words [1]: some intestinal calcium transport activity
HL-60 differentiation, more active than corresponding 2β-isomer [2]: 100 times
induction of differentiation of HL-60 cells to monocytes, in words [2]: extremely potent
Serum Calcium [3, 7]: 4.8 ± 0.2 mg/100 ml
Serum Calcium [3, 8]: 5.8 ± 0.5 mg/100 ml
bone calcium mobilization (serum calcium) activity, in words [3]: relatively strong bone calcium mobilization at both dose levels
ability to bind the porcine intestinal vitamin D receptor, in words [4]: about as active as 1α,25-(OH)2D3

Compound: CC1[C@H](O)CC(=C/C=C2\CCC[C@]3(C)[C@@H]([C@H](C)CCCC(C)(C)O)CC[C@@H]23)C[C@H]1O (stereo partly drawn) [Compound 13, 1α,25-Dihydroxy-2β-methyl-19-nor-vitamin D3]
Intestinal Calcium Transport (S/M) [1, 9]: 4.4 ± 0.8 S/M
Intestinal Calcium Transport (S/M) [1, 10]: 3.1 ± 0.9 S/M
intestinal calcium transport activity, in words [1, 11]: little, if any
induction of differentiation of HL-60 cells to monocytes, in words [2]: high potency in cellular differentiation
Serum Calcium [3, 9]: 4.1 ± 0.1 mg/100 ml
Serum Calcium [3, 10]: 3.8 ± 0.2 mg/100 ml
bone calcium mobilization (serum calcium) activity, in words [3, 11]: little, if any
calcemic activity (intestinal calcium transport and bone calcium mobilization), in words [3]: lack of calcemic activity
receptor binding, less effective than 1α,25-(OH)2D3 ([4]; relative to 1α,25-(OH)2D3): 39 fold

Compound: CC1C(O)CC(=CC=C2CCC[C@]3(C)[C@@H]([C@@H](C)CCCC(C)(C)O)CC[C@@H]23)CC1O (stereo partly drawn) [Compound 19, 20(S)-1α,25-Dihydroxy-2β-methyl-19-nor-vitamin D3]
Intestinal Calcium Transport (S/M) [1, 12]: 2.9 ± 0.3 S/M
Intestinal Calcium Transport (S/M) [1, 13]: 3.8 ± 0.1 S/M
intestinal calcium transport activity, in words [1]: little, if any, intestinal calcium transport activity
induction of differentiation of HL-60 cells to monocytes, in words [2]: high potency in cellular differentiation
Serum Calcium [3, 12]: 4.4 ± 0.1 mg/100 ml
Serum Calcium [3, 13]: 4.4 ± 0.1 mg/100 ml
bone calcium mobilization (serum calcium) activity, in words [3]: little, if any, bone mobilization activity
calcemic activity (intestinal calcium transport and bone calcium mobilization), in words [3]: lack of calcemic activity
ability to bind the porcine intestinal vitamin D receptor, in words [4]: about as active as 1α,25-(OH)2D3

Compound: CC(CCCC(C)(C)O)C1CCC2C(=CC=C3CC(O)C(CO)C(O)C3)CCCC21C (stereo not drawn) [Compound 21, 1α,25-Dihydroxy-2β-(hydroxymethyl)-19-norvitamin D3]
receptor binding, less effective than 2α-hydroxymethyl analog 20 ([4]; relative to 20): ca. 8 times

Compound: CC(CCCC(C)(C)O)C1CCC2C(=CC=C3CC(O)C(CO)C(O)C3)CCCC21C [Compound 23, 20(S)-1α,25-Dihydroxy-2β-(hydroxymethyl)-19-norvitamin D3]
Intestinal Calcium Transport (S/M) [1, 16]: 3.5 ± 0.7 S/M
Intestinal Calcium Transport (S/M) [1, 17]: 3.5 ± 0.3 S/M
induction of differentiation of HL-60 cells to monocytes, in words [2]: high potency in cellular differentiation
Serum Calcium [3, 16]: 3.6 ± 0.1 mg/100 ml
Serum Calcium [3, 17]: 3.5 ± 0.2 mg/100 ml
calcemic activity (intestinal calcium transport and bone calcium mobilization), in words [3]: relatively inactive; also recorded: lack of calcemic activity
receptor binding, less potent than 22 and 1α,25-(OH)2D3 ([4]; relative to 22 and 1α,25-(OH)2D3): 6–8 ×

Compound: CCC(O)(CC)CCCC(C)C1CCC2C(=CC=C3CC(O)C(C)C(O)C3)CCCC21C [Compound 37, 20(S)-1α,25-Dihydroxy-2β-methyl-26,27-dihomo-19-norvitamin D3]
Serum Ca (mean ± SEM) [5, 20]: 5.0 ± 0.0^d^1
Serum Ca (mean ± SEM) [5, 21]: 9.9 ± 0.3^d^2
HL-60 Differentiation Activity ratio ([2]; Table 6): 0.03
HL-60 Differentiation ED50 ([2]; Table 6): 0.11 nM
VDR Binding ratio ([4]; Table 6): 5.5
pEC50 ([4]; Table 6): 8.32
Ca Transport S/M (mean ± SEM) [6, 20]: 4.7 ± 0.6^d^1 S/M
Ca Transport S/M (mean ± SEM) [6, 21]: 5.2 ± 0.6^d^2 S/M

The next lines start with results.

ability to bind the porcine intestinal vitamin D receptor, in words [4]: about as active as 1α,25-(OH)2D3
Compound: CC(CCCC(C)(C)O)C1CCC2C(=CC=C3CC(O)C(C)C(O)C3)CCCC21C (stereo not drawn) [Compound 18, 2α-methyl-19-nor-20S-1,25-(OH)2D3]
Intestinal Calcium Transport (S/M) [1, 12]: 12.9 ± 1.9 S/M
Intestinal Calcium Transport (S/M) [1, 13]: 8.4 ± 1.1 S/M
intestinal calcium transport activity, in words [1]: significant change in intestinal calcium transport at both the 260 pmol and the 130 pmol dose levels
HL-60 differentiation, more active than corresponding 2β-isomer [2]: 10 times
induction of differentiation of HL-60 cells to monocytes, in words [2]: extremely potent
Serum Calcium ([3]; Table 3, 130 pmol/day/7 days i.p., mean±SEM, listed as 2α-Methyl-19-nor-20(S)-1,25-(OH)2D3): 8.3 ± 0.7 mg/100 ml
Serum Calcium ([3]; Table 3, 130 pmol/day/7 days i.p., mean±SEM, listed as 2α-methyl-19-nor-20S-1,25-(OH)2D3): 8.3±0.7 mg/100 ml
Serum Calcium ([3]; Table 3, 260 pmol/day/7 days i.p., mean±SEM, listed as 2α-Methyl-19-nor-20(S)-1,25-(OH)2D3): 10.3 ± 0.11 mg/100 ml
Serum Calcium ([3]; Table 3, 260 pmol/day/7 days i.p., mean±SEM, listed as 2α-methyl-19-nor-20S-1,25-(OH)2D3): 10.3±0.11 mg/100 ml
bone calcium mobilization (serum calcium) activity, in words [3]: much higher than that of the native hormone

ability to bind the porcine intestinal vitamin D receptor, in words [4]: about the same binding affinity as 23
Compound: C[C@H](CCCC(C)(C)O)[C@H]1CC[C@H]2/C(=C/C=C3C[C@@H](O)C(CO)[C@H](O)C3)CCC[C@]12C (stereo partly drawn) [Compound 20, 1α,25-Dihydroxy-2α-(hydroxymethyl)-19-norvitamin D3]

ability to bind the porcine intestinal vitamin D receptor, in words [4]: almost equivalent to 1α,25-(OH)2D3
Compound: CC(CCCC(C)(C)O)C1CCC2C(=CC=C3CC(O)C(CO)C(O)C3)CCCC21C [Compound 22, 2α-Hydroxymethyl-19-nor-20(S)-1,25-(OH)2D3]
Intestinal Calcium Transport (S/M) [1, 14]: 5.0 ± 0.3 S/M
Intestinal Calcium Transport (S/M) [1, 15]: 5.8 ± 0.4 S/M
induction of differentiation of HL-60 cells to monocytes, in words [2]: high potency in cellular differentiation
Serum Calcium [3, 14]: 4.0 ± 0.1 mg/100 ml
Serum Calcium [3, 15]: 3.9 ± 0.1 mg/100 ml
calcemic activity (intestinal calcium transport and bone calcium mobilization), in words [3]: relatively inactive; also recorded: lack of calcemic activity

VDR Binding ratio ([4]; Table 6): 3.6
pEC50 ([4]; Table 6): 8.51
Compound: CCC(O)(CC)CCCC(C)C1CCC2C(=CC=C3CC(O)C(C)C(O)C3)CCCC21C [Compound 36, 20(S)-1α,25-Dihydroxy-2α-methyl-26,27-dihomo-19-nor-vitamin D3]
Serum Ca (mean ± SEM) [5, 18]: 5.9 ± 0.2^d^1
Serum Ca (mean ± SEM) [5, 19]: 9.3 ± 0.2^d^2
HL-60 Differentiation Activity ratio ([2]; Table 6): 0.01
HL-60 Differentiation ED50 ([2]; Table 6): 0.06 nM
Ca Transport S/M (mean ± SEM) [6, 18]: 5.8 ± 0.4^d^1 S/M
Ca Transport S/M (mean ± SEM) [6, 19]: 8.4 ± 0.8^d^2 S/M

VDR Binding ratio ([4]; Table 8): 4.0
pEC50 ([4]; Table 8): 8.46
Compound: CC1[C@H](O)CC(=C/C=C2\CCC[C@@]3(C)C2CCC3[C@@H](C)CCCC2(O)CCCC2)C[C@H]1O (stereo partly drawn) [Compound 48, 20(S)-1α,25-Dihydroxy-26,27-dimethylene-2α-methyl-19-norvitamin D3]
Serum Ca (mean ± SEM) [5, 22]: 6.9 ± 0.5^d^1
Serum Ca (mean ± SEM) [5, 23]: 9.0 ± 0.3^d^2
HL-60 Differentiation Activity ratio ([2]; Table 8): 0.01
HL-60 Differentiation ED50 ([2]; Table 8): 0.044 nM
Ca Transport S/M (mean ± SEM) [6, 22]: 7.9 ± 1.0^d^1 S/M
Ca Transport S/M (mean ± SEM) [6, 23]: 9.0 ± 1.0^d^2 S/M
